Source: ChEMBL document CHEMBL1201862, “PubChem BioAssay data set” (2004)
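A five-concentration, 48-hour dose response in 96-well plates underlies each endpoint, interpolated linearly between surrounding concentrations. GI50 = concentration required for 50% inhibition of growth.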 Active and inactive are the calls of the source. Rule as the data show it: active = GI50 up to about 1.1 µM and inactive = higher.

Experiments:
Assay in all cases: NCI tumour cell line growth inhibition, 48 h
COLO 205 = test system: COLO 205
EKVX = test system: EKVX
HCT-116 = test system: HCT-116
HL-60 = test system: HL-60
KM12 = test system: KM12
LOX IMVI = test system: LOX IMVI
LXFL 529 = test system: LXFL 529
M14 = test system: M14
NCI-H460 = test system: NCI-H460
OVCAR-3 = test system: OVCAR-3
OVCAR-4 = test system: OVCAR-4
OVCAR-8 = test system: OVCAR-8
RPMI-8226 = test system: RPMI-8226
SNB-75 = test system: SNB-75
UACC-62 = test system: UACC-62
SR = test system: SR

Structure (SMILES)	GI50 (COLO 205)	GI50 (EKVX)	GI50 (HCT-116)	GI50 (HL-60)	GI50 (KM12)	GI50 (LOX IMVI)	GI50 (LXFL 529)	GI50 (M14)	GI50 (NCI-H460)	GI50 (OVCAR-3)	GI50 (OVCAR-4)	GI50 (OVCAR-8)	GI50 (RPMI-8226)	GI50 (SNB-75)	GI50 (UACC-62)	GI50 (SR)
Cc1cc(N(CCC#N)CCC#N)ccc1CC1N=C(c2ccccc2)OC1=O (stereo unspecified)	> 100 µM (inactive)	> 100 µM (inactive)	> 100 µM (inactive)	> 100 µM (inactive)	> 100 µM (inactive)	> 100 µM (inactive)	> 100 µM (inactive)	> 100 µM (inactive)	> 100 µM (inactive)	> 100 µM (inactive)	> 100 µM (inactive)	> 100 µM (inactive)	> 100 µM (inactive)	> 100 µM (inactive)	> 100 µM (inactive)	–
Cc1ccc(C)c2c1C1CCCCC3(OCCCO3)C21O (stereo unspecified)	> 100 µM (inactive)	–	> 100 µM (inactive)	> 100 µM (inactive)	> 100 µM (inactive)	> 100 µM (inactive)	> 100 µM (inactive)	> 100 µM (inactive)	> 100 µM (inactive)	51.4 µM (inactive)	> 100 µM (inactive)	> 100 µM (inactive)	> 100 µM (inactive)	31.7 µM (inactive)	> 100 µM (inactive)	–
CCCCCC(=O)OC[n+]1ccc2c(C)c3[nH]c4ccccc4c3c(C)c2c1	–	0.628 µM (active)	0.373 µM (active)	2.99 µM (inactive)	–	0.514 µM (active)	1.02 µM (active)	1.42 µM (inactive)	0.142 µM (active)	1.19 µM (inactive)	1.1 µM (active)	0.474 µM (active)	0.288 µM (active)	1.49 µM (inactive)	1.56 µM (inactive)	0.281 µM (active)
CN(C(=O)c1cccs1)C(=S)N1CCN(c2ccccn2)CC1	> 100 µM (inactive)	–	> 100 µM (inactive)	> 100 µM (inactive)	> 100 µM (inactive)	> 100 µM (inactive)	> 100 µM (inactive)	> 100 µM (inactive)	> 100 µM (inactive)	> 100 µM (inactive)	> 100 µM (inactive)	> 100 µM (inactive)	> 100 µM (inactive)	> 100 µM (inactive)	> 100 µM (inactive)	–
CCOC(=O)C1COc2cc(-c3cc(=O)c4ccccc4o3)ccc2O1 (stereo unspecified)	> 100 µM (inactive)	95.1 µM (inactive)	> 100 µM (inactive)	–	> 100 µM (inactive)	52.7 µM (inactive)	65.2 µM (inactive)	> 100 µM (inactive)	33.8 µM (inactive)	> 100 µM (inactive)	42.9 µM (inactive)	24.7 µM (inactive)	–	47.9 µM (inactive)	36.8 µM (inactive)	> 100 µM (inactive)
